{"source": "patent US8822870B2", "about": "“Dielectric insulation medium” (ABB Technology Ltd., priority 2010, dated 2014)", "origin": "cited, not measured here"}
{"smiles": "O=C(C(F)(F)C(F)(F)F)C(F)(C(F)(F)F)C(F)(F)F", "note": "[C6-ketone, 1,1,1,2,4,4,5,5,5-Nonafluoro-2-(trifluoromethyl)pentan-3-one]", "values": [{"measurement": "LC50 4 hours", "result": "about 100,000 ppm"}]}
